In patent publication US20230278972A1, “SUBSTITUTED HALOALKYL SULFONANILIDE HERBICIDES” (FMC Corporation, priority 2020, published 2023):

Tests used:
Assay type in all cases: in vivo
[1] = tested on: ragweed (common ragweed, Ambrosia artemisiifolia); test: Test A preemergence, ragweed; conditions: Preemergence; for Ragweed plant response rating: visual injury on 0 to 100 scale (0 no effect, 100 complete control), approximately 10 days; for Plant response rating, Ragweed: 0 to 100 scale (0 no effect, 100 complete control)
Summary of the method: (§1)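 Seeds are sown in loam mixed with sand and sprayed on the soil surface right after planting for the preemergence test. Postemergence pots are sprayed once seedlings reach 2 to 10 cm at the one- to two-leaf stage. The same surfactant-containing, non-phytotoxic solvent formulation serves both.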

kochia (Bassia scoparia) [2] = test: Test A postemergence, kochia; conditions: Postemergence, 0 to 100 scale (0 no effect, 100 complete control); for Plant response rating, Kochia: 125 g ai/ha; for Kochia plant response rating: 500 g ai/ha, visual injury vs untreated controls after approx. 10 days
Summary of the method: as §1

[3] = tested on: galium (catchweed bedstraw, Galium aparine); test: Test A postemergence, galium; conditions: Postemergence, 0 to 100 scale (0 no effect, 100 complete control); for Plant response rating, Galium: 125 g ai/ha; for Galium plant response rating: 500 g ai/ha, visual injury vs untreated controls after approx. 10 days
Summary of the method: (§2)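 Preemergence: pigweed seeds in loam soil–sand blend received a directed soil spray of test chemicals in a non-phytotoxic solvent with surfactant. Postemergence: barnyardgrass, wheat and galium in pots of the same soil, 2 to 10 cm tall at one- to two-leaf stage, sprayed with the same formulation.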

[4] = tested on: Foxtail, Giant (giant foxtail, Setaria faberi); test: Test A preemergence, Foxtail, Giant; conditions: Preemergence; for Foxtail, Giant plant response rating: visual injury on 0 to 100 scale (0 no effect, 100 complete control), approximately 10 days; for Plant response rating, Foxtail, Giant: 0 to 100 scale (0 no effect, 100 complete control)
Summary of the method: as §1

[5] = tested on: blackgrass (Alopecurus myosuroides); test: Test A postemergence, blackgrass; conditions: Postemergence, 0 to 100 scale (0 no effect, 100 complete control); for Plant response rating, Blackgrass: 125 g ai/ha; for Blackgrass plant response rating: 500 g ai/ha, visual injury vs untreated controls after approx. 10 days
Summary of the method: as §1

[6] = tested on: Foxtail, Giant (giant foxtail, Setaria faberi); test: Test A postemergence, Foxtail, Giant; conditions: Postemergence, 0 to 100 scale (0 no effect, 100 complete control); for Plant response rating, Foxtail, Giant: 125 g ai/ha; for Foxtail, Giant plant response rating: 500 g ai/ha, visual injury vs untreated controls after approx. 10 days
Summary of the method: as §1

[7] = tested on: Ryegrass, Italian (Italian ryegrass, Lolium multiflorum); test: Test A postemergence, Ryegrass, Italian; conditions: Postemergence, 0 to 100 scale (0 no effect, 100 complete control); for Plant response rating, Ryegrass, Italian: 125 g ai/ha; for Ryegrass, Italian plant response rating: 500 g ai/ha, visual injury vs untreated controls after approx. 10 days
Summary of the method: as §1

[8] = tested on: Ryegrass, Italian (Italian ryegrass, Lolium multiflorum); test: Test A preemergence, Ryegrass, Italian; conditions: Preemergence; for Ryegrass, Italian plant response rating: visual injury on 0 to 100 scale (0 no effect, 100 complete control), approximately 10 days; for Plant response rating, Ryegrass, Italian: 0 to 100 scale (0 no effect, 100 complete control)
Summary of the method: as §1

[9] = tested on: pigweed (Amaranthus retroflexus); test: Test A postemergence, pigweed; conditions: Postemergence, 0 to 100 scale (0 no effect, 100 complete control); for Plant response rating, Pigweed: 125 g ai/ha; for Pigweed plant response rating: 500 g ai/ha, visual injury vs untreated controls after approx. 10 days
Summary of the method: as §1

[10] = tested on: ragweed (common ragweed, Ambrosia artemisiifolia); test: Test A postemergence, ragweed; conditions: Postemergence, 0 to 100 scale (0 no effect, 100 complete control); for Plant response rating, Ragweed: 125 g ai/ha; for Ragweed plant response rating: 500 g ai/ha, visual injury vs untreated controls after approx. 10 days
Summary of the method: as §1

[11] = tested on: barnyardgrass (Echinochloa crus-galli); test: Test A preemergence, barnyardgrass; conditions: Preemergence; for Barnyardgrass plant response rating: visual injury on 0 to 100 scale (0 no effect, 100 complete control), approximately 10 days; for Plant response rating, Barnyardgrass: 0 to 100 scale (0 no effect, 100 complete control)
Summary of the method: as §1

[12] = tested on: pigweed (Amaranthus retroflexus); test: Test A preemergence, pigweed; conditions: for Pigweed plant response rating: visual injury on 0 to 100 scale (0 no effect, 100 complete control), approximately 10 days; for Plant response rating, Pigweed: 0 to 100 scale (0 no effect, 100 complete control)
Text: Seeds of plant species selected from barnyardgrass (Echinochloa crus-galli), kochia (Bassia scoparia), ragweed (common ragweed, Ambrosia artemisiifolia), Ryegrass, Italian (Italian ryegrass, Lolium multiflorum), Foxtail, Giant (giant foxtail, Setaria faberi), and pigweed (Amaranthus retroflexus) were planted into a blend of loam soil and sand and treated preemergence with a directed soil spray using test chemicals formulated in a non-phytotoxic solvent mixture which included a surfactant. At the same time, plants selected from these weed species and also wheat (Triticum aestivum), corn (Zea mays), blackgrass (Alopecurus myosuroides), and galium (catchweed bedstraw, Galium aparine) were planted in pots containing the same blend of loam soil and sand and treated with postemergence applications of test chemicals formulated in the same manner. Plants ranged in height from 2 to 10 cm and were in the one- to two-leaf stage for the postemergence treatment. […] A dash (-) response means no test result.

kochia (Bassia scoparia) [13] = test: Test A preemergence, kochia; conditions: Preemergence; for Kochia plant response rating: visual injury on 0 to 100 scale (0 no effect, 100 complete control), approximately 10 days; for Plant response rating, Kochia: 0 to 100 scale (0 no effect, 100 complete control)
Summary of the method: as §1

[14] = tested on: wheat (Triticum aestivum); test: Test A postemergence, wheat; conditions: Postemergence, 0 to 100 scale (0 no effect, 100 complete control); for Plant response rating, Wheat: 125 g ai/ha; for Wheat plant response rating: 500 g ai/ha, visual injury vs untreated controls after approx. 10 days
Summary of the method: as §2

corn (Zea mays) = test: Test A postemergence, corn; conditions: Postemergence, 0 to 100 scale (0 no effect, 100 complete control); for Plant response rating, Corn: 125 g ai/ha; for Corn plant response rating: 500 g ai/ha, visual injury vs untreated controls after approx. 10 days
Summary of the method: as §1

[15] = 125 g ai/ha, visual injury, approx. 10 days

| Structure (SMILES) | Ragweed plant response rating ([1]; 125 g ai/ha) | Plant response rating, Ragweed ([1]; 500 g ai/ha) | Plant response rating, Kochia (kochia (Bassia scoparia) [2]; visual injury approx. 10 days) | Kochia plant response rating (kochia (Bassia scoparia) [2]) | Plant response rating, Galium ([3]; visual injury approx. 10 days) | Galium plant response rating [3] | Foxtail, Giant plant response rating ([4]; 125 g ai/ha) | Plant response rating, Foxtail, Giant ([4]; 500 g ai/ha) | Plant response rating, Blackgrass ([5]; visual injury approx. 10 days) | Blackgrass plant response rating [5] | Foxtail, Giant plant response rating [6] | Ryegrass, Italian plant response rating [7] | Plant response rating, Ryegrass, Italian ([8]; 500 g ai/ha) | Pigweed plant response rating [9] | Ragweed plant response rating [10] | Plant response rating, Barnyardgrass ([11]; 500 g ai/ha) | Plant response rating, Pigweed ([12]; 500 g ai/ha) | Plant response rating, Kochia (kochia (Bassia scoparia) [13]; 500 g ai/ha) | Wheat plant response rating [14] | Corn plant response rating (corn (Zea mays)) | further results |
| --- | --- | --- | --- | --- | --- | --- | --- | --- | --- | --- | --- | --- | --- | --- | --- | --- | --- | --- | --- | --- | --- |
| Cc1cc(-c2cc(N(S(=O)(=O)C(F)(F)F)S(=O)(=O)C(F)(F)F)c(C)cc2C)c(=O)n(C)n1 [Compound 75] | 20 | 80 | 20 | 80 | 70 | 90 | 100 | 100 | 30 | 70 | 90 | 60 | 100 | 80 | 50 | 100 | 100 | 100 | 70 | 0 | Plant response rating, Foxtail, Giant ([6]; visual injury approx. 10 days): 30; Plant response rating, Ryegrass, Italian ([7]; visual injury approx. 10 days): 20; Ryegrass, Italian plant response rating ([8]; 125 g ai/ha): 80; Plant response rating, Pigweed ([9]; visual injury approx. 10 days): 40; Plant response rating, Ragweed ([10]; visual injury approx. 10 days): 0; Barnyardgrass plant response rating ([11]; 125 g ai/ha): 90; Pigweed plant response rating ([12]; 125 g ai/ha): 80; Kochia plant response rating (kochia (Bassia scoparia) [13]; 125 g ai/ha): 80; Plant response rating, Wheat ([14]; visual injury approx. 10 days): 40; Plant response rating, Corn (corn (Zea mays); visual injury approx. 10 days): 0 |
| Cc1cc(C)c(N(S(=O)(=O)C(F)(F)F)S(=O)(=O)C(F)(F)F)cc1-c1ccnn(C)c1=O [Compound 76] | 70 | 90 | 50 | 90 | 90 | 100 | 100 | 100 | 50 | 50 | 90 | 80 | 100 | 90 | 90 | 90 | 100 | 90 | 80 | 70 | Plant response rating, Foxtail, Giant ([6]; visual injury approx. 10 days): 90; Plant response rating, Ryegrass, Italian ([7]; visual injury approx. 10 days): 70; Ryegrass, Italian plant response rating ([8]; 125 g ai/ha): 60; Plant response rating, Pigweed ([9]; visual injury approx. 10 days): 70; Plant response rating, Ragweed ([10]; visual injury approx. 10 days): 60; Barnyardgrass plant response rating ([11]; 125 g ai/ha): 90; Pigweed plant response rating ([12]; 125 g ai/ha): 50; Kochia plant response rating (kochia (Bassia scoparia) [13]; 125 g ai/ha): 60; Plant response rating, Wheat ([14]; visual injury approx. 10 days): 40; Plant response rating, Corn (corn (Zea mays); visual injury approx. 10 days): 0 |
| Cc1cc(C)c(N(S(=O)(=O)C(F)(F)F)S(=O)(=O)C(F)(F)F)cc1C1=NOC2(CCC2)C1 [Compound 196] | – | 0 | – | 20 | – | 80 | – | 100 | – | 0 | 0 | 30 | 70 | 50 | 30 | 90 | 100 | 80 | 0 | 0 | Plant response rating, Ragweed [1, 15]: 0; Plant response rating, Kochia (kochia (Bassia scoparia) [2]): 10; Plant response rating, Galium [3]: 60; Plant response rating, Foxtail, Giant [4, 15]: 30; Plant response rating, Blackgrass [5]: 0; Plant response rating, Foxtail, Giant [6]: 0; Plant response rating, Ryegrass, Italian [7]: 0; Plant response rating, Ryegrass, Italian [8, 15]: 20; Plant response rating, Pigweed [9]: 30; Plant response rating, Ragweed [10]: 0; Plant response rating, Barnyardgrass [11, 15]: 0; Plant response rating, Pigweed [12, 15]: 50; Plant response rating, Kochia (kochia (Bassia scoparia) [13]; [15]): 70; Plant response rating, Wheat [14]: 0; Plant response rating, Corn (corn (Zea mays)): 0 |
| Cc1cc(C)c(N(S(=O)(=O)C(F)(F)F)S(=O)(=O)C(F)(F)F)cc1C1=NOC2(CCCCC2)C1 [Compound 198] | – | 80 | – | 60 | – | 90 | – | 100 | – | 0 | 30 | 40 | 90 | 70 | 80 | 100 | 100 | 80 | 40 | 20 | Plant response rating, Ragweed [1, 15]: 70; Plant response rating, Kochia (kochia (Bassia scoparia) [2]): 20; Plant response rating, Galium [3]: 70; Plant response rating, Foxtail, Giant [4, 15]: 100; Plant response rating, Blackgrass [5]: 10; Plant response rating, Foxtail, Giant [6]: 0; Plant response rating, Ryegrass, Italian [7]: 30; Plant response rating, Ryegrass, Italian [8, 15]: 60; Plant response rating, Pigweed [9]: 50; Plant response rating, Ragweed [10]: 20; Plant response rating, Barnyardgrass [11, 15]: 80; Plant response rating, Pigweed [12, 15]: 70; Plant response rating, Kochia (kochia (Bassia scoparia) [13]; [15]): 60; Plant response rating, Wheat [14]: 20; Plant response rating, Corn (corn (Zea mays)): 20 |
